The numbers were not newly measured in PMC4090575, “An In Vivo Microdialysis Study of FLZ Penetration through the Blood-Brain Barrier in Normal and 6-Hydroxydopamine Induced Parkinson's Disease Model Rats” (BioMed Research International, 2014), which cites them from elsewhere.

In the data set the test system is P-gp mediated multidrug resistance. Details: method as in PMID 9381979. The conditions noted are these: high therapeutic index; cited from earlier work.

With `Cl.Cl.Cl.O[C@@H](COc1cccc2ncccc12)CN1CCN([C@@H]2c3ccccc3[C@@H]3[C@H](c4ccccc42)C3(F)F)CC1` [Zosuquidar·3HCl, zosuquidar trihydrochloride], the “active doses in in vivo antitumor efficacy experiments” value is 1 to 30 mg/kg.
